Test results reported in US20230181535A1, “UBIQUITIN-LIGASE INHIBITORS FOR THE TREATMENT OF CANCER” (FUNDACIÓN PROFESOR NOVOA SANTOS, priority 2020, published 2023).
Entries after “also recorded” stand apart in the source; their conditions may differ.

Experiments:
[1] = test system: LoVo cells; assay: Phase-contrast cell phenotype, LoVo; format: cell-based
Protocol: (§1) MDCK, HEK293T, HepG2, MCF7 and ACHN cells were cultured in Dulbecco's Modified Eagles Medium (DMEM). MDCK stably expressing Hakai cells (Hakai-MDCK) were previously reported and were growth in DMEM with G418 (800 μg/ml). […] LoVo and PC-3 cells were cultured in F-12K Medium (Kaighn's Modification of Ham's F-12 Medium) and HT-29 and HCT116 cells in McCoy's 5a Medium Modified. 5637 cells were cultured in RPMI medium. All culture media were supplemented with 1% penicillin/streptomycin and 10% of heat-inactivated fetal bovine serum (FBS) at 37° C. in a humidified incubator with 5% CO2. Cells were monthly tested for mycoplasma contamination and used only for 1-3 months after defrosted. LoVo and HT29 cells were authenticated with the StemElite ID system (Promega). For phase-contrast images, culture cells were photographed with a Nikon Eclipse-TI microscope.

[2] = test system: HT29 cells; assay: BrdU proliferation assay, HT29; format: cell-based, human; conditions: 48 h
Protocol: (§2) For BrdU assays, 1×10^4 of indicated cells were plated per well into a 96-well plate. After 24 h, cells were treated with the indicated inhibitors for 48 h. Three independent experiments were plated with six replicates per each condition. Cells were treated with […] BrdU for 2 h. BrdU incorporation into newly synthesized DNA was measured using a cell proliferation colorimetric immunoassay kit according to the manufacturer's instructions (Roche, Switzerland). Results are expressed as mean±S.D. Results are represented as percentage of positive cells (mean±S.D) of three independent experiments.

[3] = test system: liver cancer HepG2 cells; assay: BrdU proliferation assay, HepG2; format: cell-based, human; conditions: 48 h
Protocol: as §2

[4] = test system: Hakai-MDCK cells; assay: Soft agar-colony formation assay, Hakai-MDCK; format: cell-based; conditions: 21 days
Protocol: Soft agar-colony formation assay was performed on 12-well plates in triplicates at a density of 5×10^3 MDCK and MDCK-Hakai cells/well, or 12×10^3 HT29 cells/well. Cells were seeded in medium with 0.5% low-melting agarose over a layer with 0.75% low-melting agarose (Lonza Rockland, Me., USA). Cells were treated with the indicated inhibitors and DMSO was used as vehicle. Treatment was refreshed every 3 days and, after 21 days for MDCK and MDCK-Hakai cells or 28 days for HT29 cells, number of colonies were quantified. Quantification of five randomly-selected fields of each condition was photographed with a Nikon Eclipse-TI microscope (objective 4×). Experiments were conducted with three triplicates and were repeated three times. Data are represented as mean±SD.

[5] = test system: breast cancer MCF7 cell; assay: BrdU proliferation assay, MCF7; format: cell-based, human; conditions: 48 h
Protocol: as §2

[6] = test system: Hakai-transformed MDCK cells; assay: Phase-contrast cell phenotype, Hakai-MDCK; format: cell-based; conditions: Hakai-transformed MDCK cells (mesenchymal phenotype)
Protocol: as §1

[7] = test system: Hakai-MDCK xenograft tumours; assay: Tumour xenograft model (Hakai-MDCK cells in nude mice); format: in vivo
Protocol: Xenografts experiments were performed in Experimental Surgery Unit—Technological Training Center from INIBIC in compliance with the European Community Law (86/609/EEC) and the Spanish law (R.D. 53/2013). The experiment was approved by the Ethics Committee for Animal Experimentation of Xerencia de Xestion Integrada da Coruna (XXIAC). Mice were in a 12/12 hours light/dark cycle with water and food available ad libitum. Six weeks old athymic nu/nu mice were randomly distributed in groups. One million of MDCK cells, resuspended in DMEM without serum and antibiotic, were subcutaneously inoculated in both flanks in two groups of 3 animals. The same number of Hakai-MDCK cells were injected in two groups of 4 animals. […] Then, half of the animals were treated with Hakin-1 (5 mg/kg) and the other half with the same concentration of DMSO every 3 days. Tumour outgrowth was monitored twice a week taking measurements of tumour length (L) and width (W) with an electronic calipter. Tumour volume was calculated as pLW2/6. Forty days after inoculation, animals were sacrificed. Tumours, lungs, kidneys and livers were collected and fixed in 4% PFA and embedded in paraffin blocks for histology and/or immunohistochemistry (IHC) analyses.
Tumours and tissues were deparaffinised, rehydrated and stained with haematoxylin and eosin (H&E) as previously described. Tumour sections (4 μm) were also deparaffinised and hydrated for immunohistochemistry. Antigen retrieval was carried by heating the samples (2100 Retriever; PickCell Laboratories) in citrate buffer (Dako REAL, Denmark) or in EDTA buffer. Then, endogenous peroxidase activity was blocked with peroxidase blocking (DakoCytomation, Denmark). Samples were blocked and permeabilized with 0.2% BSA and 0.1% Tx-100 for 1 hour and incubated with the indicated primary antibodies overnight at 4° C. in a wet chamber. Slides were incubated for 1 hour at room temperature with the secondary antibody and detection was carried our using DAB (DakoReal Envision kit) according to manufacturer instructions. Finally, nuclei were counterstained with Gill's Hematoxylin and mounted with DePeX. Pictures were taken with an Olympus microscope. Quantification of images was performed taken 5 photographs of each animal with Image J programme and the represented results are shown as mean±SEM. The number of mitosis was counted in sections stained with H&E. In this case, ten pictures of each tumour were taken with an Olympus BX50 microscope (objective 40×) and the number of mitosis was counted manually. Results are represented as mean±SEM and a representative photograph is shown for each condition.
Real-time PCR was used to study the presence of metastasis in the lung mice. Primers for HA epitope and Hakai present in ectopic HA-tagged Hakai expressed in MDCK-Hakai cells (5′-[…]-3′; 5″-[…]-3′) were used for the quantification. Primers for mouse apolipoprotein B (apob) (5′-[…]-3′; 5′-[…]-3′) were used as endogenous control. MDCK cell line was used as negative control. Lung DNA was extracted from 10-15 sections of paraffin blocks (4 μm) using with QIAamp DNA Mini Kit (Qiagen). The amplification and quantification of DNA was carried by quantitative PCR in technical triplicates by using a LightCycler 480 real-time lightcycler (Roche). Relative DNA levels were calculated by 2^−ΔΔCt method.
Tissue sections from tumours were deparaffinised and rehydrated using standard protocols. The slides were rinsed twice with PBS and treated with citrate buffer buffer (Dako REAL, Denmark) in microwave at 350 W for 5 min. The tissue sections were then analysed with an in situ Cell Death Detection Kit, Fluorescein (Roche) following the manufacturer's instructions. Then, slides were incubated with Hoechst for 5 min in darkness. The reaction was visualized under an epifluorescence Olympus microscope using 20× objective.

[8] = test system: epithelial MDCK cells; assay: Phase-contrast cell phenotype, MDCK; format: cell-based
Protocol: as §1

[9] = Hakai-MDCK xenograft tumours, immunohistochemistry
[10] = Hakai-MDCK xenograft, nude mice, 5 mg/kg

`O=C(O)c1ccc(-n2nnnc2SCC(=O)c2ccc([N+](=O)[O-])cc2)cc1` [Hakin-1, 4-(5-[2-(4-nitrophenyl)-2-oxoethyl]thiol-1H-tetrazol-1-yl)benzoic acid] was tested, and the “cell phenotype by phase contrast” value [1] was “modestly induce an epithelial phenotype”, the “cell proliferation (BrdU)” value [2] was “reduced cell proliferation” and the “cell proliferation (BrdU)” value [3] was “inhibited cell proliferation”. For the same molecule, the “colony formation in soft agar” value [4] was “robust inhibition of colony formation”, the “cell proliferation (BrdU)” value [5] was “inhibited cell proliferation” and the “cell phenotype by phase contrast” value [6] was “induction of an epithelial phenotype”. The “micrometastasis in lung (quantitative PCR of HA-tagged Hakai DNA)” value ([7]; Hakai-MDCK xenograft mice, vs DMSO treated mice) was “significant reduction of micrometastasis”, the “Cortactin expression (immunohistochemistry)” value ([7]; Hakai-MDCK xenograft tumours) was “recovered” and the “apoptosis (TUNEL assay)” value ([7]; Hakai-MDCK xenograft tumours) was “does not affect cell apoptosis; also recorded: no effect on apoptosis was detected”. For the same molecule, the mitotic-index ([7]; Hakai-MDCK xenograft tumours, H&E) was “markedly reduce”, the “number of Ki67-positive cells” value [7, 9] was “markedly reduce” and the “number of blood vessels (CD31 angiogenic marker)” value [7, 9] was “strong reduction on the number of blood vessels”. The “N-cadherin mesenchymal marker expression (immunohistochemistry)” value ([7]; Hakai-MDCK xenograft tumours, vs DMSO treated mice) was “strongly reduced”, the “tumour cell morphology (H&E)” value [7, 10] was “induction of tumour differentiation and an increase in cytoplasm size” and the “tumour-cell infiltration in blood vessels (H&E)” value [7, 10] was “no infiltration was detected”. The xenograft tumour growth ([7]; Hakai-MDCK xenograft, nude mice, 5 mg/kg every 3 days, vs DMSO, 5 mg/kg) was “inhibits tumour growth; also recorded: potent effect on inhibiting xenograft tumour growth; also recorded: strong antitumor effect; also recorded: inhibited tumor growth”, the “tissue damage / systemic toxicity (H&E of organs)” value ([7]; nude mice treated with 5 mg/kg, 5 mg/kg) was “Intact cell morphology and tissue structure of liver and kidney; also recorded: no damage was observed in lung and kidney tissues; also recorded: apparently without systemic toxicity” and the “cell phenotype by phase contrast” value [8] was “no effect was observed”.
